From ChEMBL document CHEMBL3244393, “6-aminopyrazolo[4,3-c]pyridin-4(5H)-one, a novel analogue of guanine” (J Med Chem, 1977)
Calls of active or inactive are those of the source.

What was measured:
KB = experiment: Antiviral activity against Rhinovirus type 13 infected in human KB cells assessed as inhibition of virus-induced cytopathic effect; type: functional, cell-based; conditions: Human rhinovirus A13
Human respirovirus 3 = experiment: Antiviral activity against Parainfluenza virus type 3 infected in human KB cells assessed as inhibition of virus-induced cytopathic effect; type: functional, organism-based
Human alphaherpesvirus 1 = experiment: Antiviral activity against Herpes virus type 1 infected in human KB cells assessed as inhibition of virus-induced cytopathic effect; type: functional, organism-based

Measured: Activity

Nc1cc2[nH]ncc2c(=O)[nH]1
inactive: all assays above
